From PMC12321279, “Novel 4,5‐Dihydrothiazole‐Phenylpiperazine Derivatives: Synthesis, Docking Studies and Pharmacological Evaluation as Serotonergic Agents” (Chemmedchem, 2025)
Where two headings read alike, the source gives them in different places.

Assays:
[1] = target: T1, 5‐HT1A receptor (Rattus norvegicus, UniProt P19327); assay: 5‐HT1A receptor activation in the [35S]GTP‐γ‐S assay (hippocampal membranes); format: biochemical; settings: [35S]GTPγS; for Emax: read-out: Emax (%) ± SEM, 5‐HT1A receptor G‐protein stimulation; for agonist activity for the 5‐HT1A receptor (classification in words): efficacy compared with 8‐OH‐DPAT
T1 construct: 80 μg of hippocampal membrane suspension (the 5‐HT1A assay); from tissue; host or cells: rat (Sprague-Dawley) hippocampus membranes
T1 sequence (P19327 1-422): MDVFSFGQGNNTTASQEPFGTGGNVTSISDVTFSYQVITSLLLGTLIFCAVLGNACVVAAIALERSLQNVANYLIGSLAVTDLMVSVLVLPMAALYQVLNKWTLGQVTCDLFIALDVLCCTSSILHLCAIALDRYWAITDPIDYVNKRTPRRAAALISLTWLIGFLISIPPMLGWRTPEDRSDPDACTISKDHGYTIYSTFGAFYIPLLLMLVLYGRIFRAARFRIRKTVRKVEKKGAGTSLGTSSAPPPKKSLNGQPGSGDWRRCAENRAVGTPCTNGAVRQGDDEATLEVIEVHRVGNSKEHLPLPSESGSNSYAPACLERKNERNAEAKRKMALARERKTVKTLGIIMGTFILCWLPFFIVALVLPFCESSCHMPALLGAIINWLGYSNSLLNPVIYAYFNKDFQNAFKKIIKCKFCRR
Method: Seven compound concentrations equally spaced on a log scale (10–4 M to 10–10 M) were incubated in duplicate with hippocampal membrane preparations (5μg per well) in assay buffer (50 mM Tris‐HCl, pH = 7.4, 1 mM EGTA, 3 mM MgCl2, 100 mM NaCl, and 30 μM GDP) and 0.08 nM [^35S]GTP‐γ‐S (specific activity: 1250 Ci mmole^−1, Revvity). Nonspecific binding was determined with 10μM of unlabeled GTP‐γ‐S. The final DMSO concentration in the assay was 5%. The reaction mixture was incubated for 90 min. at 30 °C on an orbital shaker set at 250 rpm. Next, the reaction mixture was deposited under vacuum with the FilterMate Harvester (Revvity, USA) onto Unifilter GF/C Plates (Revvity, MA, USA) presoaked with wash buffer (50 mM Tris‐HCl, pH = 7.4). The wells were then rapidly washed with 2 mL of wash buffer. Filter plates were dried overnight at room temperature. Once completely dry, 35 μl of MicroScint PS (Revvity, MA, USA) scintillation fluid was added to each well. Radioactivity was counted in a MicroBeta2 LumiJet scintillation counter (Revvity, MA, USA). Data were analyzed with GraphPad Prism 5.0 software (GraphPad Software, San Diego California USA, www.graphpad.com). The curves were fitted with three‐parameter non‐linear regression model.

[2] = tested on: larval zebrafish; assay: Basic locomotor activity of larval zebrafish; format: in vivo, zebrafish (Danio rerio); settings: 5 dpf larvae, 20 h incubation at maximum‐tolerated concentration (Figure 12), 30 min tracking
Method: All experiments were conducted on zebrafish (Danio rerio) larvae up to 5 days post fertilization (dpf), therefore, in accordance with current European legislation, ethical permission to conduct assays was not required. However, housing and experimental procedures were performed in compliance with the National Institute of Health Guidelines for the Care and Use of Laboratory Animals and the European Union Directive of 22 September 2010 (2010/63/EU) on protecting animals used for scientific purposes. All efforts were taken to minimize larvae stress and suffering. Larvae were euthanized with an overdose of tricaine ([…]). The zebrafish facility of Experimental Medicine Centre (Medical University of Lublin, Poland) provided wild‐type zebrafish embryos of the AB strain. Embryos as well as larvae were maintained in Petri dishes filled with E3 embryo medium, i.e., fish water (1.5 mM HEPES, pH 7.6; 17.4 mM NaCl; 0.21 mM KCl; 0.12 mM MgSO4; and 0.18 mM Ca (NO3)2). These were maintained under standard, generally accepted housing conditions (temperature 28.5 ± 1 °C, light to dark cycle 14 h to 10 h). Plastic transfer Pasteur pipettes were used to replace medium each day. Before the respective behavioral tests were conducted, larvae at 4 dpf were incubated for 20 h in different arylpiperazine derivatives solutions of maximum‐tolerated concentrations (MCTs), determined during toxicological screening.^[ [30], [32] ^] The control group was exposed to equivalent concentration of DMSO solvent. All locomotor tracking tests were performed at the same period of the day. Basic locomotor activity was measured using an automated tracking device, Daniovision by Noldus, and the total distance traveled was quantified using EthoVision XT software of the same company (Wageningen, the Netherlands) over a 30 min long observation period. Larvae were placed in 48‐well plates, individually (single larva per well), using a plastic transfer pipette. The PTZ‐induced hyperlocomotion (acute seizure assay) was assessed in 5 dpf larval zebrafish (after 20 h incubation with tested derivatives at MCTs). After the incubation, larvae were exposed to an acute dose of PTZ (20 mM). Larval locomotor activity after exposure to PTZ was tracked (Daniovision by Noldus) over 30 mins, after 5‐mins of habituation. Additionally, larval locomotor activity was assessed in response to alternate lighting conditions (lights ON vs. lights OFF). Light intensity under illumination was 100%. Challenge to light/dark conditions lasted 10 min each, twice repeated.^[ [52] ^] Similarly, the data were recorded as the distance traveled (mm) by larvae when exposed to alternating lightning. All experiments were repeated three times, and data pooled. For statistical analysis and figure generation, GraphPad Prism 9.3.1 version (San Diego, CA, USA) was employed, and Grubbs test was applied to identify outliers. Shapiro‐Wilk test was then employed to assess whether data are normally distributed. Moreover, nonparametric ANOVA, Kruskal–Wallis, or Friedman (for repeated measures) test was used to analyze data, with statistical significance level set at p < 0.05. Data are presented as median or median + individual values.

[3] = target: 5‐HT2A receptor (Rattus norvegicus, UniProt P14842); assay: 5‐HT2A competition binding assay ([3H]ketanserin, frontal cortex membranes); parameters: from tissue; host or cells: rat (Sprague-Dawley) frontal cortex membranes; settings: 1 nM [3H]ketanserin
Sequence of 5‐HT2A receptor (P14842 whole entry): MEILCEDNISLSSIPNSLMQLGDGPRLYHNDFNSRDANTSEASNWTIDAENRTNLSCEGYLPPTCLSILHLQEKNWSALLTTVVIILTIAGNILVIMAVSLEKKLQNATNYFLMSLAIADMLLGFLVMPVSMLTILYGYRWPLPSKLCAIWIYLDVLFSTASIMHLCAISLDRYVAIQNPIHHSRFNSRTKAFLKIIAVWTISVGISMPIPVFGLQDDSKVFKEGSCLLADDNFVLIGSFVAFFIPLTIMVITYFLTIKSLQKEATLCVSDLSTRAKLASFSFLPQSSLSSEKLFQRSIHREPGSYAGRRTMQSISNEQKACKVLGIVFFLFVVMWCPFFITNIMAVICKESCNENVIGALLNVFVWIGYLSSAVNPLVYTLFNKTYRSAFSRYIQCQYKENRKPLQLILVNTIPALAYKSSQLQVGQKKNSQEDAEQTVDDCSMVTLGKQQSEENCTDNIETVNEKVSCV

[4] = rat hippocampal membranes, 95% CI in brackets, read-out: EC50 (95% CI, μM), 5‐HT1A receptor G‐protein stimulation
[5] = rat hippocampal membranes, read-out: pEC50, 5‐HT1A receptor G‐protein stimulation (converted)
[6] = 95% CI in brackets, read-out: 5‐HT2A Ki (95% CI)
[7] = read-out: 5‐HT2A pKi (converted)

Row | Compound | EC50 [1, 4] [µM] | Emax ([1]; rat hippocampal membranes) [%] | EC50 [1, 5] [µM] | basic locomotor activity (total distance traveled) [2] | Ki [3, 6] [µM] | Ki [3, 7] [µM] | agonist activity for the 5‐HT1A receptor (classification in words) [1] | Emax (%) ± SEM, 5‐HT1A receptor G‐protein stimulation ([1]; rat hippocampal membranes) [%]
1 | O=C(NCCCN1CCN(c2ccccc2C2=NCCS2)CC1)c1ccccn1 [FG‐1, N‐(3‐(4‐(2‐(4,5‐dihydrothiazol‐2‐yl) phenyl) piperazin‐1‐yl) propyl) picolinamide] | 16.5 | 138 ± 11.5 | 20 | decreased | 3.13 |  |  | 
2 | O=C(NCCCN1CCN(c2cccc(C3=NCCS3)c2)CC1)c1ccccn1 [FG‐2, N‐(3‐(4‐(3‐(4,5‐dihydrothiazol‐2‐yl) phenyl) piperazin‐1‐yl) propyl) picolinamide] | 125 | 136 ± 10.2 |  |  | 2.9 | 2.95 |  | 
3 | O=C(NCCCN1CCN(c2ccccc2C2=NCCS2)CC1)c1ccncc1 [FG‐4, N‐(3‐(4‐(2‐(4,5‐dihydrothiazol‐2‐yl) phenyl) piperazin‐1‐yl) propyl) isonicotinamide] |  | 132 ± 14.9 | 50.1 | slightly decreased larval activity | 4.7 |  |  | 
4 | O=C(NCCCN1CCN(c2cccc(C3=NCCS3)c2)CC1)c1ccncc1 [FG‐5, N‐(3‐(4‐(3‐(4,5‐dihydrothiazol‐2‐yl) phenyl) piperazin‐1‐yl) propyl) isonicotinamide] | 18.2 | 185 ± 17.6 |  |  | 4.43 |  |  | 
5 | O=C(NCCCN1CCN(c2ccc(C3=NCCS3)cc2)CC1)c1ccncc1 [FG‐6, N‐(3‐(4‐(4‐(4,5‐dihydrothiazol‐2‐yl) phenyl) piperazin‐1‐yl) propyl) isonicotinamide] | 9.4 | 184 ± 11 |  | slightly decreased larval activity | 4.6 |  | full agonists | 
6 | O=C1C2C3C=CC(C3)C2C(=O)N1OCCCN1CCN(c2ccccc2C2=NCCS2)CC1 (stereo not shown) [FG‐7, 2‐(3‐(4‐(2‐(4,5‐dihydrothiazol‐2‐yl) phenyl) piperazin‐1‐yl) propoxy)‐3a,4,7,7a‐tetrahydro‐1 H‐4,7‐methanoisoindole‐1,3(2 H)‐dione] | 3.01 | 177 ± 3.3 |  | slightly decreased larval activity | 2.86 |  | full agonists | 
7 | O=C1C2C3C=CC(C3)C2C(=O)N1OCCCN1CCN(c2cccc(C3=NCCS3)c2)CC1 (stereo not shown) [FG‐8, 2‐(3‐(4‐(3‐(4,5‐dihydrothiazol‐2‐yl) phenyl) piperazin‐1‐yl) propoxy)‐3a,4,7,7a‐tetrahydro‐1H‐4,7‐methanoisoindole‐1,3(2H)‐dione] | 7.9 | 184 ± 6.6 |  | slightly decreased larval activity | 1.1 | 1.15 | full agonists | 
8 | O=C(NCCCN1CCN(c2ccc(C3=NCCS3)cc2)CC1)C1CC2C=CC1C2 (stereo not drawn) [FG‐18, Endo‐ N‐(3‐(4‐(4‐(4,5‐dihydrothiazol‐2‐yl)phenyl)piperazin‐1‐yl)propyl) bicyclo[2.2.1]hept‐5‐ene‐2‐carboxamide] | 8.8 |  | 8.91 | decreased | 2.73 |  |  | 144 ± 8.2
